The results in this text go back to patent publication US8328934B2, “Crystal of GTP Cyclohydrolase Type IB” (priority 2007, dated 2012).

Common to all, as to type: biochemical
The target of experiment [1] is T1, B. subtilis GCYH-IB (Bacillus subtilis, UniProt P94398).
T1 construct: His6 (cleaved yes); made in house; host or cells: E. coli BL21 (DE3), pET-30 Xa/LIC plasmid pSAB-9-61
T1 sequence (P94398 1-304): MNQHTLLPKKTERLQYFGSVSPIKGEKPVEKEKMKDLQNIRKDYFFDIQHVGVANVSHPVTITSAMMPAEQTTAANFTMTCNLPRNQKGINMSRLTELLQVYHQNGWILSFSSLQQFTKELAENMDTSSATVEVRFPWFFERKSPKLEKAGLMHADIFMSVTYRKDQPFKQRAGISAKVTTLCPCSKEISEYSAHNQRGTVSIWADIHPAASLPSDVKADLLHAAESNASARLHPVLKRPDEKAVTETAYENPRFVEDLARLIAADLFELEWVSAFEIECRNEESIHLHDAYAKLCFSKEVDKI
The conditions noted are these: for metal ion supports catalysis: apoenzyme assayed with specific metal ions over a broad concentration range; for relative activity (%): at the metal concentration for optimal activity, relative to Mn(II); for [Metal] (metal concentration for optimal activity): apoenzyme 2 μM, metal 0.1 μM-4 mM, 0.1 mM GTP. The procedure:
It is well established that GCYH-IA uses a bound Zn^2+ ion for activity. Nichol et al., 1985. To investigate the metal dependence of GCYH-IB, the purified recombinant B. subtilis enzyme was assayed for activity in the presence of a variety of metal ions or EDTA. […] To obtain unambiguous, quantitative data on the effect of various metal ions on catalytic activity, the enzyme was first demetallated by dialyzing against an EDTA/Chelex-containing buffer to generate the apoenzyme, which was then assayed in the presence of specific metal ions over a broad concentration range.
(§1) Enzyme Activity Assays: All chemicals were of analytical, metal-free grade from Sigma or Fisher. All solutions were prepared with Milli-Q water (18.2 MΩ) and treated with Chelex-100 (BioRad) to remove contaminating metals. Glassware were soaked in nitric acid (10%), then EDTA (5 mM) and rinsed liberally with Chelex-treated Milli-Q water before use. Activity assays were conducted as described previously (El Yacoubi et al, 2006) using either variable concentrations of metal or EDTA (5 mM), and 0.1 mM GTP.
(§2) Apoenzyme Preparation: Metal ions were removed from B. subtilis and N. gonorrhoeae GCYH-IB by incubating the purified, recombinant protein (0.5 ml) with EDTA (5 mM, 1 hr, 21° C.) followed by dialysis thrice against a 4-liter solution of Tris-HCl (50 mM, pH 8.0), KCl (50 mM), EDTA (5 mM) and a few grams of Chelex-100. The resulting apoenzyme was dialyzed thrice against 3 L of Tris-HCl (50 mM, pH 8.0), KCl (50 mM), and Chelex-100 to remove EDTA and passed through Chelex-100 resin (5 ml protein solution per 3 ml resin) prior to activity assays. Protein concentrations were determined spectrophotometrically.
Metal Activation Studies: The B. subtilis apoenzyme (2 μM) was incubated with varying concentrations (0.1 μM-4 mM) of metal chlorides (MnCl2, ZnCl2, MgCl2, NiCl2, CaCl2, CdCl2, CoCl2, CuCl2, CoCl3, FeCl3) or Fe(SO4) in standard buffer (100 mM HEPES, pH 8.0, 100 mM KCl) for 10 min at 37 C, and assayed for activity as described above. All assays involving Fe^2+ were conducted in an anaerobic chamber with degassed and N2-purged buffers.

The target in experiment [2] is T2, N. gonorrhoeae GCYH-IB (Neisseria gonorrhoeae, UniProt Q5F9K6).
T2 construct: His6 (cleaved yes); made in house; host or cells: E. coli BL21 (DE3), pET-30 Xa/LIC plasmid pSAB-8-142
T2 sequence (Q5F9K6 1-257): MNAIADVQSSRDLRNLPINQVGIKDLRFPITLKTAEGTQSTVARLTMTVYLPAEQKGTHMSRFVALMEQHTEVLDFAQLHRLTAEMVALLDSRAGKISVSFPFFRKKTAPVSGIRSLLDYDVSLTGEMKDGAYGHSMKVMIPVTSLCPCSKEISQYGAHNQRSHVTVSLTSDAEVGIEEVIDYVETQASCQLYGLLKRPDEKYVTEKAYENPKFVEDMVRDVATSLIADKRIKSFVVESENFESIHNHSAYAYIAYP
In words: Effect of zinc on GCYH-IB activity in the presence of Mn(II). The note with it: 600 μM Mn(II). As for the experimental part:
(§3) The presence of both Zn^2+ and Mn^2+ in a reaction assay results in diminished activity (i.e. Zn^2+ is an inhibitor versus Mn^2+, Table 6). All of the metals bind the enzymes with low affinity, such that running the protein over a G-25 column or dialyzing against metal free buffer removed the protein bound metal.
as §1, §2

In experiment [3] the target is T1, B. subtilis GCYH-IB. The experiment is described as above. The conditions noted are these: 600 μM Mn(II). As for the experimental part:
as §3, §1, §2

Read-outs that look alike come from different tables or passages of the source.

`[Cu+2]` [Cu(II)]: in experiment [1], the “metal ion supports catalysis” value was “fail to support activity” and the “relative activity (%)” value is 0%.
For the compound `[Co+3]` [Co(III)], in experiment [1], the “relative activity (%)” value is reported as 0%.
Take `[Co+2]` [Co(II)]: in experiment [1], the “[Metal] (metal concentration for optimal activity)” value (from here on “[Metal]”) came out at 100 µM and the “relative activity (%)” value is 24 ± 3%.
On to `[Mg+2]` [Mg(II)], for which, in experiment [1], the “[Metal]” value was 100 µM, the “metal ion supports catalysis” value is on record as “catalysis is supported” and the “relative activity (%)” value stood at 43 ± 4%.
With `[Fe+3]` [Fe(III)], in experiment [1], the “relative activity (%)” value came out at 0%.
Take `[Zn+2]` [Zn(II)]: the “relative activity (%)” value in experiment [2] (0.5 μM zinc) was found to be 93%; in experiment [2] (1 μM zinc), 68%; in experiment [2] (2 μM zinc) it was 57%; in experiment [2] (4 μM zinc) it was 47%; in experiment [2] (10 μM zinc), 53%; in experiment [2] (20 μM zinc), 45%. For the same compound, the “relative activity (%)” value in experiment [2] (40 μM zinc) is recorded as 45%; in experiment [3] (0.5 μM zinc), 84%; in experiment [3] (1 μM zinc), 41%; in experiment [3] (2 μM zinc), 34%; in experiment [3] (4 μM zinc), 35%; in experiment [3] (10 μM zinc) it was 35%. Also, the “relative activity (%)” value in experiment [3] (20 μM zinc) is 26%; in experiment [3] (40 μM zinc), 23%; in experiment [1] it was 14 ± 1%. The “optimum metal concentration required for catalysis, fold lower than for Mn^2+” value in experiment [1] (Zn^2+ versus Mn^2+) is given as “roughly 10 fold”. Moreover, the “[Metal]” value in experiment [1] came to 50 µM. Besides, in experiment [1], the “metal ion supports catalysis” value is recorded as “catalysis is supported”.
As to `[Ni+2]` [Ni(II)], in experiment [1], the “[Metal]” value was 100 µM, the “metal ion supports catalysis” value was “catalysis is supported” and the “relative activity (%)” value is recorded as 9.8 ± 1.3%.
For `[Ca+2]` [Ca(II)], in experiment [1], the “metal ion supports catalysis” value is on record as “fail to support activity” and the “relative activity (%)” value is recorded as 0%.
`[Cd+2]` [Cd(II)]: in experiment [1], the “metal ion supports catalysis” value is reported as “fail to support activity” and the “relative activity (%)” value stood at 0%.
For `[Fe+2]` [Fe(II)], in experiment [1], the “[Metal]” value stood at 1000 µM and the “relative activity (%)” value turned out to be 75 ± 8%.
As to `O=C(O)CN(CCN(CC(=O)O)CC(=O)O)CC(=O)O` [EDTA, reference compound], in experiment [1], the “activity in the presence of EDTA” value is reported as “no activity was observed”.
Regarding `[Mn+2]` [Mn(II)], in experiment [1], the “[Metal]” value was 500 µM, the “metal ion supports catalysis” value is “catalysis is supported” and the “relative activity (%)” value came out at 100%.
